Assay [1] has as its target T1, Cathepsin B (Homo sapiens, UniProt P07858). The experiment in a line: Inhibitory activity against Cathepsin B at a concentration of 200 ng/mL.
The target of assay [2] is T1, Cathepsin B. Description: Inhibitory activity against Cathepsin B was determined.
The target in assay [3] is T1, Cathepsin B. Description: Inhibitory activity against Cathepsin B at a concentration of 4 ng/mL.
Assay [4] has as its target T1, Cathepsin B. The experiment in a line: Inhibitory activity against Cathepsin B at a concentration of 10 ng/mL.
Assay [5] has as its target T1, Cathepsin B. The experiment in a line: Inhibitory activity against Cathepsin B at a concentration of 1 ng/mL.
The target in assay [6] is T1, Cathepsin B. Description: Inhibitory activity against Cathepsin B at a concentration of 7 ng/mL.
Assay [7] concerns the target T1, Cathepsin B. The experiment in a line: Inhibitory activity against Cathepsin B at a concentration of 50 ng/mL.
Assay [8] deals with T1, Cathepsin B. Description: Inhibitory activity against Cathepsin B at a concentration of 400 ng/mL.
Assay [9] deals with T1, Cathepsin B. Description: Inhibitory activity against Cathepsin B at a concentration of 70 ng/mL.
For assay [10], the target named is T1, Cathepsin B. Description: Inhibitory activity against Cathepsin B at a concentration of 1000 ng/mL.
Assay [11] has as its target T1, Cathepsin B. The experiment in a line: Inhibitory activity against Cathepsin B at a concentration of 900 ng/mL.
The target in assay [12] is T1, Cathepsin B. Particulars: 40 ng/mL.
Description: Inhibitory activity against Cathepsin B at a concentration of 40 ng/mL

Experimental findings from ChEMBL document CHEMBL1131905, “Tokaramide A, a new cathepsin B inhibitor from the marine sponge Theonella aff. mirabilis” (Bioorg Med Chem Lett, 1999) are described below.

pIC50: −log10 of the molar value.

What is called inhibition is how much of the control response was suppressed. Higher therefore signals a response far below the control. Broadly, the pIC50 is the negative decadic logarithm of the IC50, by convention in mol/L. High values mean a low IC50, low ones a high IC50.

Consider `CC(C)C[C@H](NC(=O)[C@H]1O[C@@H]1C(=O)O)C(=O)NCCCCN=C(N)N` [E-64], for which the inhibition against Cathepsin B [1] came to 98%; on Cathepsin B [3], 29%; on Cathepsin B [4] it was 75%; against Cathepsin B [5] it was 24%; on Cathepsin B [6], 52%; on Cathepsin B [7], 90%. In addition, the inhibition on Cathepsin B [8] is 100%; against Cathepsin B [9] it was 95%. Also, the pIC50 on Cathepsin B [2] was 7.86.

In the case of `CC(=O)N[C@@H](CC(C)C)C(=O)N[C@@H](CC(C)C)C(=O)N[C@H](C=O)CCCNC(=N)N` [LEUPEPTIN], the inhibition against Cathepsin B [1] came to 95%; against Cathepsin B [3], 25%; on Cathepsin B [4] it was 55%; against Cathepsin B [5], 15%; against Cathepsin B [6] it was 35%; against Cathepsin B [10], 100%. The inhibition against Cathepsin B [7] was found to be 75%; at Cathepsin B [11], 100%; against Cathepsin B [8] it was 100%; against Cathepsin B [9] it was 82%. Further, the negative logarithm of the IC50 (pIC50) on Cathepsin B [2] was 7.67.

Turning to `CC(C)[C@H](NC(=O)c1ccc(O)cc1)C(=O)N[C@H](C(=O)N[C@H](C=O)CCCN=C(N)N)C(C)C` [TOKARAMIDE A], the inhibition at Cathepsin B [12] stood at 45%; on Cathepsin B [3], 12%; against Cathepsin B [4] it was 30%; against Cathepsin B [5] it was 10%; at Cathepsin B [6], 16%; against Cathepsin B [11], 100%. The inhibition against Cathepsin B [8] was 90%; at Cathepsin B [9] it was 70%. For the same compound, the negative-log IC50 (pIC50) at Cathepsin B [2] is 7.22.
